pIC50: −log10 of the molar value.
Legend:
K562 [1] = test: Cytotoxicity against human K562 cells assessed as cell viability after 48 hrs by MTT assay; type: functional, cell-based; conditions: K562, 48 h
[2] = Cytotoxicity against human multidrug resistant Lucena1 cells assessed as cell viability after 48 hrs by MTT assay; type: functional, cell-based; conditions: Lucena 1, 48 h
HEp-2 = test: Cytotoxicity against human HEp2 cells assessed as cell viability; type: functional, cell-based
Caco-2 = test: Cytotoxicity against human Caco-2 cells assessed as cell viability; type: functional, cell-based
A549 = test: Cytotoxicity against human A549 cells assessed as cell viability; type: functional, cell-based
K562 [3] = test: Induction of apoptosis in human K562 cells assessed as DNA fragmentation at 10 ug/mL by FACS analysis; type: functional
K562 [4] = test: Induction of apoptosis in human K562 cells assessed as DNA fragmentation at 25 ug/mL by FACS analysis; type: functional
K562 [5] = test: Induction of apoptosis in human K562 cells assessed as DNA fragmentation at 50 ug/mL by FACS analysis; type: functional
[6] = Induction of apoptosis in human multidrug resistant Lucena1 cells assessed as DNA fragmentation at 10 ug/mL by FACS analysis; type: functional
[7] = Induction of apoptosis in human multidrug resistant Lucena1 cells assessed as DNA fragmentation at 25 ug/mL by FACS analysis; type: functional
[8] = Induction of apoptosis in human multidrug resistant Lucena1 cells assessed as DNA fragmentation at 50 ug/mL by FACS analysis; type: functional
K562 [9] = test: Activation of caspase 3 in human K562 cells at 50 ug/mL after 4 hrs by flow cytometry; type: functional
K562 [10] = test: Activation of caspase 3 in human K562 cells at 50 ug/mL after 8 hrs by flow cytometry; type: functional
K562 [11] = test: Activation of caspase 3 in human K562 cells at 50 ug/mL after 12 hrs by flow cytometry; type: functional
K562 [12] = test: Activation of caspase 3 in human K562 cells at 50 ug/mL after 24 hrs by flow cytometry; type: functional

Work on `C[C@@H]1CC[C@]2(C(=O)O)CC[C@]3(C)C(=CC[C@@H]4[C@@]5(C)C[C@@H](O)[C@H](O)C(C)(C)[C@@H]5CC[C@]43C)[C@@H]2[C@]1(C)O` [TOMENTIC ACID] yielded a pIC50 (K562 [1]) of 4.05 and a pIC50 [2] of 4.10.

Molecule `CC(=O)O[C@@H]1C[C@]2(C)[C@H]3CC=C4[C@H]5[C@](C(=O)O)(CC[C@@H](C)[C@@]5(C)O)CC[C@@]4(C)[C@]3(C)CC[C@H]2C(C)(C)[C@H]1O` has a pIC50 (K562 [1]) of 4.42 and a pIC50 [2] of 4.38.

In the case of `CC(=O)O[C@H]1[C@H](O)C[C@]2(C)[C@H]3CC=C4[C@H]5[C@](C(=O)O)(CC[C@@H](C)[C@@]5(C)O)CC[C@@]4(C)[C@]3(C)CC[C@H]2C1(C)C`, the pIC50 (K562 [1]) was 4.25 and the pIC50 [2] was 4.14.

`C[C@@H]1CC[C@]2(C(=O)O)CC[C@]3(C)C(=CC[C@@H]4[C@@]5(C)C[C@@H](O)[C@@H](O)C(C)(C)[C@@H]5CC[C@]43C)[C@@H]2[C@]1(C)O` [EUSCAPHIC ACID] showed a pIC50 (K562 [1]) of 4.12, a pIC50 [2] of 4.08 and a pIC50 (HEp-2) of 3.98. It also gave a pIC50 (Caco-2) of 3.98, a pIC50 (A549) of 4.02 and an Activity (K562 [3]) of 13.58%. For the same molecule, the Activity (K562 [4]) was 27.75%, the Activity (K562 [5]) was 62.93% and the Activity [6] was 10.48%. It also gave an Activity [7] of 30.87%, an Activity [8] of 63.57% and an Activity (K562 [9]) of 8.04%. The Activity (K562 [10]) was 13.87%, the Activity (K562 [11]) was 18.69% and the Activity (K562 [12]) was 36.33%.

For `CC[C@]1(O)C[C@H]2CN(CCc3c([nH]c4ccccc34)[C@@](C(=O)OC)(c3cc4c(cc3OC)N(C=O)[C@H]3[C@@](O)(C(=O)OC)[C@H](OC(C)=O)[C@]5(CC)C=CCN6CC[C@]43[C@@H]65)C2)C1` [VINCRISTINE], the pIC50 (K562 [1]) was 8.22 and the pIC50 [2] was < 7.00.
